A short description of assay [1]: viability loss in Mcl1-dependent HMC-1-8 cells, dose response, selectivity assay for A1 inhibitor project, cell-based, luminescence, dry powder (AID 504415). It counts as functional. The note with it: Homo sapiens.
Assay [2] concerns the target Protein disulfide-isomerase (Homo sapiens, UniProt P07237). Nature of the assay: PDI inhibitors, insulin aggregation turbidity, dose response, biochemical, absorbance, cherry-picked samples (AID 602350). It counts as functional.
Assay [3] in a line: A cell-based HTS for delayed death inhibitors of the malarial parasite plastid Measured in Microorganism System Using Plate Reader - 2126-02_Inhibitor_Dose_DryPowder_Activity. It counts as functional, organism-based.
Assay [4] in a line: A cell-based HTS for delayed death inhibitors of the malarial parasite plastid Measured in Microorganism System Using Plate Reader - 2126-01_Inhibitor_Dose_DryPowder_Activity. The class given is functional, organism-based.
In assay [5] the target is Vascular endothelial growth factor receptor 2 (Homo sapiens, UniProt P35968). It counts as functional.
Sequence of Vascular endothelial growth factor receptor 2 (P35968 whole entry): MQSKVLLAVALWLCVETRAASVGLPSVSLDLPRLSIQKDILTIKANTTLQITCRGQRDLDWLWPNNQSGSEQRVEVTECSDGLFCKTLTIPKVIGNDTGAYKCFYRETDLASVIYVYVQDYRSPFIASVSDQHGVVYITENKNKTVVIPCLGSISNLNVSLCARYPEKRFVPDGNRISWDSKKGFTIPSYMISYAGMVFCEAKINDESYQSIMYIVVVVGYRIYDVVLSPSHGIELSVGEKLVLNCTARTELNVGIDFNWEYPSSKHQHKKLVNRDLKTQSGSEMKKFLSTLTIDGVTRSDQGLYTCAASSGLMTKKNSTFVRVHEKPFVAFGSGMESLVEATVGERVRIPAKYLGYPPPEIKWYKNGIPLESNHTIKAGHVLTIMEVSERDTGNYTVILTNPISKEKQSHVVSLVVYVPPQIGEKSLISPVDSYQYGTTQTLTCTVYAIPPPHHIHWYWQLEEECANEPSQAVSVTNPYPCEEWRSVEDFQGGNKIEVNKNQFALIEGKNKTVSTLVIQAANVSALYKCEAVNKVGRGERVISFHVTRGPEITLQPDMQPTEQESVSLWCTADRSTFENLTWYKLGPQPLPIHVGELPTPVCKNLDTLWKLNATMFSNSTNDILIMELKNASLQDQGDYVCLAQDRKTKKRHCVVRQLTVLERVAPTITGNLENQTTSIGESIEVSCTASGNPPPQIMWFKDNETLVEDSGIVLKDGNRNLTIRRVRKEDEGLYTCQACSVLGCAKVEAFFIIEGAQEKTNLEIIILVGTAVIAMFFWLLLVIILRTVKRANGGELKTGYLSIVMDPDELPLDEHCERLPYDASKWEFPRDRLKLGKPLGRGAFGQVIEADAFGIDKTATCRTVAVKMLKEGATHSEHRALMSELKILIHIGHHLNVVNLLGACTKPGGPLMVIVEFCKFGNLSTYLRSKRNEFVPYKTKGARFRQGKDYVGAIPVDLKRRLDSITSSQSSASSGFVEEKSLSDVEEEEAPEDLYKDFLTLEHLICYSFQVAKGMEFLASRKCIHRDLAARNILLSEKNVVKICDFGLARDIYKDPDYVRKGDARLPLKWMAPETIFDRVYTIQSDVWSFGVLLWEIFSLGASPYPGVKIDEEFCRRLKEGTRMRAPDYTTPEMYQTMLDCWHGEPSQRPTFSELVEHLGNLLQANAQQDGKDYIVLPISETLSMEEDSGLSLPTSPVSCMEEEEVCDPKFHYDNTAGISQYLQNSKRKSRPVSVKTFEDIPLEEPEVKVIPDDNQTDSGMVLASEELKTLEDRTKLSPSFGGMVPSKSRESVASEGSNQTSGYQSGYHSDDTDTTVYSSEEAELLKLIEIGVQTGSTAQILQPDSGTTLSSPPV
Assay [6] has as its target Aurora kinase B (Homo sapiens, UniProt Q96GD4). It counts as functional.
Assay [7] deals with Sphingosine 1-phosphate receptor 1 (Homo sapiens, UniProt P21453). Put plainly: Late-stage fluorescence-based dose-response cell-based counterscreen assay to identify agonists of the Sphingosine 1-Phosphate Receptor 4 (S1P4): Sphingosine 1-Phosphate Receptor 1 (S1P1) agonist assay Set 2. It counts as functional. In general terms: Counterscreens check selectivity or assay interference.
Sequence of Sphingosine 1-phosphate receptor 1 (P21453 whole entry): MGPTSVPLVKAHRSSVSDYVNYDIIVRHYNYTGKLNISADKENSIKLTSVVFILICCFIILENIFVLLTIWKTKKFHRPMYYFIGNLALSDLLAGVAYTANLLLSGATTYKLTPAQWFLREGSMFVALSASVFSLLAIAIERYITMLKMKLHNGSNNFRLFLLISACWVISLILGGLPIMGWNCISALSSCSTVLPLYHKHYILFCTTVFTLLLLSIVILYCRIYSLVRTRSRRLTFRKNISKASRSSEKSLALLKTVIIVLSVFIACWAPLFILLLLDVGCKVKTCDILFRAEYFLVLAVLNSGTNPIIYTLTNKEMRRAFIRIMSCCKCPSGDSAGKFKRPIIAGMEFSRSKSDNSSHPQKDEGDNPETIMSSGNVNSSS

The target in assay [8] is Sphingosine 1-phosphate receptor 5 (Homo sapiens, UniProt Q9H228). Nature of the assay: S1P5 receptor agonists, human, late-stage follow-up, counter-screen for S1P4 agonist project, cell-based, fluorescence, set 2 (AID 504867). It counts as functional.
Sequence of Sphingosine 1-phosphate receptor 5 (Q9H228 whole entry): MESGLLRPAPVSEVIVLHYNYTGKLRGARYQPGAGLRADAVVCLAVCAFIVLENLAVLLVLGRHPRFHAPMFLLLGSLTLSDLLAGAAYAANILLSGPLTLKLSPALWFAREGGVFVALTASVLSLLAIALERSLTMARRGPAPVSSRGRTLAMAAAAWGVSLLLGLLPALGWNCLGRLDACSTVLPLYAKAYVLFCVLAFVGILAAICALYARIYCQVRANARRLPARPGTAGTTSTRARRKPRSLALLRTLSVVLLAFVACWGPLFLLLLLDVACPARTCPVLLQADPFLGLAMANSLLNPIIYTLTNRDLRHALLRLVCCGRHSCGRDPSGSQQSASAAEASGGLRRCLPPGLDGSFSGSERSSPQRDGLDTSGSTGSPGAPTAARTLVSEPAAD
Assay [9] deals with Sphingosine 1-phosphate receptor 3 (Homo sapiens, UniProt Q99500). Put plainly: Late-stage fluorescence-based dose-response cell-based counterscreen assay to identify agonists of the Sphingosine 1-Phosphate Receptor 4 (S1P4): Sphingosine 1-Phosphate Receptor 3 (S1P3) agonist assay Set 2. It counts as functional.
Assay [10] addresses Sphingosine 1-phosphate receptor 2 (Homo sapiens, UniProt O95136). Nature of the assay: S1P2 receptor agonists, human, late-stage follow-up, counter-screen for S1P4 agonist project, cell-based, fluorescence, set 2 (AID 504873). It counts as functional.
Assay [11] has as its system CHO-K1. Put plainly: Counterscreen for antagonists of the orexin 1 receptor (OX1R; HCRTR1): Homogeneous time resolved fluorescence (HTRF)-based cell-based dose response assay to identify antagonists of the parental CHO-K1 cell line. [Related pubchem assays (depositor defined):AID434989, AID435008, AID463079, AID485270, AID492963, AID492964, AID492965, AID493232, AID504699, AID504701]. It counts as functional. The note with it: Cricetulus griseus.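 Note: potency for inhibition of ATP-stimulated IP1 production as antagonists.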

Assay [12] is described as follows: Counterscreen for antagonists of the orexin 1 receptor (OX1R; HCRTR1): Fluorescence-based cell-based high throughput dose response assay to identify antagonists of the parental CHO cell line. [Related pubchem assays (depositor defined):AID434989, AID435008, AID463079, AID485270, AID492963, AID492964, AID492965, AID493232, AID504699, AID504701]. It counts as functional.

The target of assay [13] is T1, Orexin/Hypocretin receptor type 1 (Homo sapiens, UniProt O43613). Put plainly: Homogeneous Time Resolved Fluorescence (HTRF)-based cell-based high throughput dose response assay for antagonists of the orexin 1 receptor (OX1R; HCRTR1). [Related pubchem assays (depositor defined):AID434989, AID435008, AID463079, AID485270, AID492963, AID492964, AID492965, AID493232, AID504717, AID504718]. The class given is functional. On the technique in general: TR-FRET usually uses a lanthanide donor and a delayed reading to cut background.
T1 sequence (O43613 whole entry): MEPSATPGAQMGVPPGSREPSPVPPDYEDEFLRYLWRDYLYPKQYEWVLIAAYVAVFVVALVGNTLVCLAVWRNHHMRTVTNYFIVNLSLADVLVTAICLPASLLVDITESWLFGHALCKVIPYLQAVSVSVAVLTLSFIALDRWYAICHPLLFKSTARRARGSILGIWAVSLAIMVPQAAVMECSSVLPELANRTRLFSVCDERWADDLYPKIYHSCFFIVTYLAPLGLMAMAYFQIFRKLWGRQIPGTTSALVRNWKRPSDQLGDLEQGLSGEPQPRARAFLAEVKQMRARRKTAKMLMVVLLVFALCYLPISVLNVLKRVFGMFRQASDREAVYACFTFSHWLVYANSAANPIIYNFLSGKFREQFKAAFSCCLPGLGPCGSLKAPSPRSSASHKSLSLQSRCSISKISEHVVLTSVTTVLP

Assay [14] deals with T1, Orexin/Hypocretin receptor type 1. Nature of the assay: Fluorescence-based cell-based high throughput dose response assay for antagonists of the orexin 1 receptor (OX1R; HCRTR1). [Related pubchem assays (depositor defined):AID434989, AID435008, AID463079, AID485270, AID492963, AID492964, AID492965, AID493232, AID504717, AID504718]. The class given is functional.
In assay [15] the target is T2, Orexin receptor type 2 (Homo sapiens, UniProt O43614). Put plainly: Counterscreen assay for antagonists of the orexin 1 receptor (OX1R; HCRTR1): Fluorescence-based cell-based dose response assay for antagonists of the orexin 2 receptor (OX2R; HCRTR2), run by assay provider. It counts as functional.
T2 sequence (O43614 whole entry): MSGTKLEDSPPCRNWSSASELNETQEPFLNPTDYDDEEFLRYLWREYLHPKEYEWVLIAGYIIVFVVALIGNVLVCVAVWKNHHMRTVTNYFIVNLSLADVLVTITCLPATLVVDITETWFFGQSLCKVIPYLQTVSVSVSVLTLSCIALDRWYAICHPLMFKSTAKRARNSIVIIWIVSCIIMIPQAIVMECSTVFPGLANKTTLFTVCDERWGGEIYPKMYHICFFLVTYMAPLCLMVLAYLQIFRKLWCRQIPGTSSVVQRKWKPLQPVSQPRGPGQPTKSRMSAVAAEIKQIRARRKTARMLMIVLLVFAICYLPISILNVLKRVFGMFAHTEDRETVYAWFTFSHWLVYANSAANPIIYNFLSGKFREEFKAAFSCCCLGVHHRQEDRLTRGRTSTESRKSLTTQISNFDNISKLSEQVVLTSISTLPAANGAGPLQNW
Assay [16] deals with T2, Orexin receptor type 2. Nature of the assay: Counterscreen assay for antagonists of the orexin 1 receptor (OX1R; HCRTR1): Homogeneous Time Resolved Fluorescence (HTRF)-based cell-based dose response assay for antagonists of the orexin 2 receptor (OX2R; HCRTR2), run by assay provider. It counts as functional.
The nature of assay [17]: inhibitors of firefly luciferase expression or activity, dose response, H4 neuroglioma cells, luminescence (AID 1990). It counts as functional, cell-based.
Assay [18] concerns BJ. Nature of the assay: cytotoxicity toward BJ-TERT fibroblasts, dose response, cell-based, RAS-independent, luminescence (AID 1933). The class given is functional. The note with it: Homo sapiens.
Assay [19] in a line: Luminescence Cell-Based Dose Response HTS to Identify Inhibitors of 5'UTR Stem-Loop Driven Prion Protein mRNA Translation in H4 Neuroglioblastoma Cells. [Related pubchem assays: 1827 (Project Summary), 1813 (Primary HTS)]. It counts as functional.
The subject of assay [20] is Vero. Put plainly: host cell cytotoxicity of antiviral hits, dose response, cytotoxicity control for West Nile virus antiviral project, secondary assay (AID 1650). The class given is functional. The note with it: Chlorocebus sabaeus.
The nature of assay [21]: inhibitors of SNCA 5'UTR-driven reporter translation, confirmation, H4 neuroglioma cells, luminescence (AID 1988). It counts as functional, cell-based.
Assay [22] has as its system BJ. Nature of the assay: cells. The class given is functional, cell-based. The note with it: Homo sapiens.
The target of assay [23] is Mothers against decapentaplegic homolog 3 (Homo sapiens, UniProt P84022). Nature of the assay: SMAD3 transcription factor inhibitors, dose response (AID 715). It counts as functional.
Sequence of Mothers against decapentaplegic homolog 3 (P84022 whole entry): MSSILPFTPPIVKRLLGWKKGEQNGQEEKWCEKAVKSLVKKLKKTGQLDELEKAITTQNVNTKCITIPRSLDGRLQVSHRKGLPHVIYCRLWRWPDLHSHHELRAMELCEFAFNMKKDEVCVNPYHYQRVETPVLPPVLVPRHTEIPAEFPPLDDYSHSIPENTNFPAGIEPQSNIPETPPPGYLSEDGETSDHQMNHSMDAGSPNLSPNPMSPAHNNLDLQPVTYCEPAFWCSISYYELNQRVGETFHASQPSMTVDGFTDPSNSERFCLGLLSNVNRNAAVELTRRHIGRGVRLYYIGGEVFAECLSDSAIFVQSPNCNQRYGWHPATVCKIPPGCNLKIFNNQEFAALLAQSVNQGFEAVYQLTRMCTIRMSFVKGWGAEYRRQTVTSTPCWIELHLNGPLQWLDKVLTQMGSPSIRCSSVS
Assay [24] has as its system BJ. Nature of the assay: cytotoxicity toward BJ-TERT-LT-ST fibroblasts, dose response, cell-based, RAS-independent, luminescence (AID 1935).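 Note: BJ fibroblasts immortalized with TERT plus LT and ST oncogenes.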 The note with it: Homo sapiens. It counts as functional.
A short description of assay [25]: cytotoxicity toward DRD oncogenic fibroblasts, dose response, cell-based, non-viral oncogenic, luminescence (AID 1934). The note with it: Homo sapiens. The class given is functional.
Assay [26] concerns HEK293. Nature of the assay: inhibitors of LMP1-driven NF-kB reporter, dose response, cell-based, HEK293, luciferase, cherry-pick (AID 588343). It counts as functional. The note with it: Homo sapiens.
For assay [27], the target named is T3, Apoptotic protease-activating factor 1 (Homo sapiens, UniProt O14727).
T3 sequence (O14727 whole entry): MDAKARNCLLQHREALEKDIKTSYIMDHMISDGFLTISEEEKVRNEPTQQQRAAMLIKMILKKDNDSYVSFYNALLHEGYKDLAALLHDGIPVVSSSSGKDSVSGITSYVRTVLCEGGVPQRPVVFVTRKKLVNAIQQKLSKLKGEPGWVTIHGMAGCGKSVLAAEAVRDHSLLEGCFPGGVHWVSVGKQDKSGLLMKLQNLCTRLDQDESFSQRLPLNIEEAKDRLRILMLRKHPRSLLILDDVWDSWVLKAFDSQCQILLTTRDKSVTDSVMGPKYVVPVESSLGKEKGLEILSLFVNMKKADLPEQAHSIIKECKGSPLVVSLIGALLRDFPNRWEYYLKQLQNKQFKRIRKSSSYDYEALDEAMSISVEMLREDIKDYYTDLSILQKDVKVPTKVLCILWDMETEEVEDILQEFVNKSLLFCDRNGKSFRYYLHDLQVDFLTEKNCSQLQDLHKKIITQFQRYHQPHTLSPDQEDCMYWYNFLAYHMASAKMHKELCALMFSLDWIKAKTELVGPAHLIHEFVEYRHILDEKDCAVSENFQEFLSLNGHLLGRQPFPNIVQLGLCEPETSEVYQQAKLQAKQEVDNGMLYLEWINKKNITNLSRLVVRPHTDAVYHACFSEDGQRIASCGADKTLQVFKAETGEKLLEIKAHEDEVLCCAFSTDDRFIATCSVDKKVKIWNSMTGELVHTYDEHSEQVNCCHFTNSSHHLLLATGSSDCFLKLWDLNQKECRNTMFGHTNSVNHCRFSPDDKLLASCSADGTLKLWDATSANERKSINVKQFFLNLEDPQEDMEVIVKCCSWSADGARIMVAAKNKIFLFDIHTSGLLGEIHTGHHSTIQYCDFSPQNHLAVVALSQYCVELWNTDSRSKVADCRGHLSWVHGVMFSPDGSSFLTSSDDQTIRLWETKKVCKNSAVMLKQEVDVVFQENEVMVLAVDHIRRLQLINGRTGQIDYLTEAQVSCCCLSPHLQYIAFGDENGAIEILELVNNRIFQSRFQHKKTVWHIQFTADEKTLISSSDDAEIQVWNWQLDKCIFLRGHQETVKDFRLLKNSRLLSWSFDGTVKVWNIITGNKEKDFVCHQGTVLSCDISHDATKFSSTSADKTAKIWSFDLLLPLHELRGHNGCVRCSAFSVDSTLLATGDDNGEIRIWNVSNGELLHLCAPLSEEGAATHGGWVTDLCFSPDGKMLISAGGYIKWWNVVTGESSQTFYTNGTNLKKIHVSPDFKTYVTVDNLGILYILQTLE
It counts as functional.

In assay [28] the target is Latent membrane protein 1 (Human herpesvirus 4 (strain B95-8), UniProt P03230). Nature of the assay: TES1-eGFP NF-kB reporter inhibition versus Tet-On dsRED, dose response, selectivity assay for LMP1 NF-kB inhibitor project, imaging, HEK293T, dual-color eGFP/dsRED, cherry-picks (AID 588398). It counts as functional, cell-based.
Sequence of Latent membrane protein 1 (P03230 whole entry): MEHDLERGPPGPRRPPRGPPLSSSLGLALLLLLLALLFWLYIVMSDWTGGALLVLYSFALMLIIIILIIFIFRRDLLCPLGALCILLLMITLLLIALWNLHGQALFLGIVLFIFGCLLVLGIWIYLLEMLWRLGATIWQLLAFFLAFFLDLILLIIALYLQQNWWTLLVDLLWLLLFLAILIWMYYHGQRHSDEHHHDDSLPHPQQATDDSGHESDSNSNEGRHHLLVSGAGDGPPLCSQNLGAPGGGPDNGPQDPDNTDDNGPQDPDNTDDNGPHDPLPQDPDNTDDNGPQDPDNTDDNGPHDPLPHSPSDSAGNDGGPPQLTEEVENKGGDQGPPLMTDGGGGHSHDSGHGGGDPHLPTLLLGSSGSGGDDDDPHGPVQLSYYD
The test system of assay [29] is BJ. Put plainly: cytotoxicity toward Ras-transformed BJeLR fibroblasts, dose response, cell-based, alamar blue fluorescence, cherrypicked samples (AID 2631).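 Note: confirmatory dose-response assay in RAS-dependent BJ fibroblasts engineered with TERT, LT and ST, with cytotoxicity read by fluorescence.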 The class given is functional. The note with it: Homo sapiens.
The nature of assay [30]: Shn3 3'UTR reporter inhibitors, dose response, cell-based, Clone20 osteoblasts, firefly luciferase, cherry-picked (AID 624132).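 Note: firefly luciferase luminescence from reporter carrying the Shn3 3'UTR in osteoblasts.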 It counts as functional.
Assay [31] is described as follows: HepG2 cell cytotoxicity, dose response, cytotoxicity control for Shn3 inhibitor project, CellTiter-Glo, cherry-picked (AID 624134). The class given is functional, cell-based. A general note: In ATP-based viability assays light output follows the ATP content of the culture.
A short description of assay [32]: control 3'UTR Renilla luciferase suppression, dose response, counter-screen for Shn3 inhibitor project, cell-based, Clone20-Shn3RL, cherry-picked (AID 624133). The class given is functional.
Assay [33] can be described thus: inhibitors of PGC1a acetylation in cells, dose response, cell-based, cherry-picked samples (AID 720514).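 Note: potency may reflect raised or lowered acetylation signal.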 It counts as functional.

Each structure is given as a SMILES string. Activity calls are given as the source filed them.

Sequence of Sphingosine 1-phosphate receptor 2 (O95136 whole entry): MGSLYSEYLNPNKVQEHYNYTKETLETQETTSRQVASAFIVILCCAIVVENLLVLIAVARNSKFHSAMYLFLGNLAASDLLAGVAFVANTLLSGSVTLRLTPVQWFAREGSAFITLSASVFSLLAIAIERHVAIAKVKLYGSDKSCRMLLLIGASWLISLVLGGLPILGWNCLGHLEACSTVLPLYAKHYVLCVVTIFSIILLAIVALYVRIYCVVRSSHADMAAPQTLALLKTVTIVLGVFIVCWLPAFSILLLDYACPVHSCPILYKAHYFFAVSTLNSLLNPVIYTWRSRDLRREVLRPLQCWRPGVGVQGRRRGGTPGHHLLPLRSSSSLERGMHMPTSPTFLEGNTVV
Sequence of Protein disulfide-isomerase (P07237 whole entry): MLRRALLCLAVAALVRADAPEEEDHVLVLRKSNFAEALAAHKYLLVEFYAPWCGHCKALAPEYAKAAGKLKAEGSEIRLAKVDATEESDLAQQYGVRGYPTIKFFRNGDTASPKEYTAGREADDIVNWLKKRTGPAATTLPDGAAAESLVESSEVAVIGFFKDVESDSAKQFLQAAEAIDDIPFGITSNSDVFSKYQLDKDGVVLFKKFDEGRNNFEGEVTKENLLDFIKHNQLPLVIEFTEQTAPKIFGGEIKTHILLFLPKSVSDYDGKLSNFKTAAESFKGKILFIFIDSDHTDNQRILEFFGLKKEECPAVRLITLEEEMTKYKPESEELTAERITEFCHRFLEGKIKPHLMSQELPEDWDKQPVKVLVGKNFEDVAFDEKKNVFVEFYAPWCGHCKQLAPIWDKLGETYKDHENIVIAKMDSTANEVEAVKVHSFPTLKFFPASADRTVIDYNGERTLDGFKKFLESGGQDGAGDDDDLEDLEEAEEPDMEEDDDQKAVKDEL

Usually AC50 stands for the midpoint of the concentration-response curve, whichever way the signal moves. Regarding `O=c1oc2ccccc2c(Nc2cc(Cl)cc(Cl)c2)c1[N+](=O)[O-]`, the AC50 in [1] is 31.2 µM (active).

In the case of `Cc1noc(C)c1S(=O)(=O)Nc1ccc2c(c1)CC(=O)N([C@@H](C)CO)C[C@H](C)[C@H](CN(C)S(=O)(=O)c1ccc(F)cc1)O2`, in assay [2], the AC50 is 19.5 µM (active).

On to `C[C@@H]1CN([C@@H](C)CO)C(=O)c2cc(NC(=O)Nc3ccccc3)ccc2O[C@@H](C)CCCCO[C@H]1CN(C)S(=O)(=O)c1ccccc1F`, for which the AC50 in assay [3] is 0.641 µM (active); in assay [4] it was 0.924 µM (active).

In general, Ki refers to the equilibrium dissociation constant of an inhibitor or competing ligand from its target. In the case of `COc1cc(Nc2ncnc(Nc3cc[nH]n3)n2)cc(OC)c1OC`, the Ki in assay [5] was 3.98 µM (active); in assay [6], 0.316 µM (active).

What is called EC50 is the concentration giving half of the maximal effect. Regarding `C/N=C1/S/C(=C/c2cc(C)n(Cc3ccccc3)c2C)C(=O)N1C`, the concentration for a half-maximal effect (EC50) in assay [7] was 0.72 µM (active); in [8], 0.144 µM (active); in assay [9], > 25 µM (inactive); in [10] it was 3.65 µM (active).

A word on the IC50: it is the concentration needed to halve the response being measured. As to `CC(=O)Nc1cccc(OCC(=O)NC(C)c2ccc3ccccc3c2)c1` (stereo not drawn), the IC50 in assay [11] was > 66.2 µM (inactive); in assay [12], > 49.7 µM (inactive); in assay [13] it was 0.623 µM (active); in assay [14], 9.01 µM (active); in [15], 30 µM (inactive); in assay [16], > 50 µM (inactive).

As usually defined, the CC50 is the concentration at which the toxic effect on the cells reaches its halfway point. Turning to `CCOC(=O)c1c2c(n(C)c1C)C(=O)C(=O)c1ccc(Br)cc1-2`, the EC50 in [17] was 6.23 µM (active); in [18] it was 4.88 µM (active); in [19], 8.25 µM (active); in [21], 3.58 µM (active); in assay [22] it was 8.06 µM (inconclusive); in assay [24], 5.56 µM (inconclusive). The values for the EC50 in assay [25] and in assay [29] were 5.41 µM (active) and 0.52 µM (active), respectively. Also, the CC50 in assay [20] is 6.53 µM (active). Besides, the IC50 in assay [23] is 10.4 µM (active); in assay [27] it was 0.797 µM (active). Moreover, the AC50 was 2.51 µM (active) in assay [26]; 41.1 µM (active) in assay [28]; 1.01 µM (active) in assay [30]; 3.95 µM (active) in [31]; 1.6 µM (active) in assay [32]; 4.34 µM (active) in assay [33].

The values are drawn from ChEMBL document CHEMBL1201862, “PubChem BioAssay data set” (2004).
